Activity calls are given as the source filed them.
Tests used:
[1] = test system: Mus musculus; assay: Gastric toxicity in Swiss mouse assessed as edema index at 10 mg/kg administered as single dose (reference value: 0.6 +/- 0.2 edema index); assay type: organism-based; parameters: dose 10 mg/kg; details: in vivo
[2] = test system: Mus musculus; assay: Gastric toxicity in Swiss mouse assessed as erosion index at 10 mg/kg administered as single dose (reference value: 0 +/- 0 erosion index); assay type: organism-based; parameters: dose 10 mg/kg; details: in vivo
[3] = test system: Mus musculus; assay: Gastric toxicity in Swiss mouse assessed as necrosis index at 10 mg/kg administered as single dose (reference value: 0 +/- 0 necrosis index); assay type: organism-based; parameters: dose 10 mg/kg; details: in vivo
[4] = test system: Mus musculus; assay: Gastric toxicity in Swiss mouse assessed as inflammatory cell index at 10 mg/kg administered as single dose (reference value: 0.2 +/- 0.2 inflammatory cell index); assay type: organism-based; parameters: dose 10 mg/kg; details: in vivo
[5] = organism: Mus musculus; details: Swiss, 5 mg/kg
Description: Inhibition of carrageenan-induced PGE2 production in Swiss mouse at 5 mg/kg, po dosed 45 mins before carrageenan dosing measured 3 hrs post carrageenan challenge by ELISA

[6] = test system: Mus musculus; assay: Inhibition of complete Freund's adjuvant-induced neutrophil migration to paw tissue in Swiss mouse at 2 mg/kg, sc dosed 45 mins before complete Freund's adjuvant dosing measured 3 to 4 hrs post complete Freund's adjuvant challenge by myeloperoxidase kinetic colorimetric assay; assay type: functional, organism-based; parameters: dose 2 mg/kg
[7] = test system: Mus musculus; assay: Inhibition of carrageenan-induced neutrophil migration to paw tissue in Swiss mouse at 2 mg/kg, sc dosed 45 mins before carrageenan dosing measured 3 to 4 hrs post […] challenge by myeloperoxidase kinetic colorimetric assay; assay type: functional, organism-based; parameters: dose 2 mg/kg
[8] = test system: Mus musculus; assay: Antinociceptive activity in Swiss mouse inflammatory pain model assessed as reduction in paw withdrawal response at 2 mg/kg, sc dosed once daily for 7 days dosed 45 mins before complete Freund's adjuvant dosing measured post complete Freund's adjuvant challenge; assay type: functional, organism-based; parameters: dose 2 mg/kg
[9] = test system: Mus musculus; assay: Inhibition of complete Freund's adjuvant-induced TNFalpha production in Swiss mouse at 2 mg/kg, sc dosed 45 mins before complete Freund's adjuvant dosing measured up to 2 hrs post complete Freund's adjuvant challenge by ELISA; assay type: functional, organism-based; parameters: dose 2 mg/kg
[10] = test system: Mus musculus; assay: Antinociceptive activity in Swiss mouse inflammatory pain model assessed as reduction in paw edema at 2 mg/kg, sc dosed once daily for 7 days dosed 45 mins before complete Freund's adjuvant dosing measured post complete Freund's adjuvant challenge; assay type: functional, organism-based; parameters: dose 2 mg/kg
[11] = test system: Mus musculus; assay: Inhibition of complete Freund's adjuvant-induced IL-1beta production in Swiss mouse at 2 mg/kg, sc dosed 45 mins before complete Freund's adjuvant dosing measured up to 24 hrs post complete Freund's adjuvant challenge by ELISA; assay type: functional, organism-based; parameters: dose 2 mg/kg
[12] = test system: Mus musculus; assay: Antinociceptive activity in Swiss mouse inflammatory pain model assessed as reduction in hyperalgesia at 0.5 mg/kg, sc dosed once daily for 7 days dosed 45 mins before carrageenan dosing measured 3 hrs post carrageenan challenge; assay type: functional, organism-based; parameters: dose 0.5 mg/kg
[13] = test system: Mus musculus; assay: Antinociceptive activity in Swiss mouse inflammatory pain model assessed as reduction in mechanical hyperalgesia at 2 mg/kg, sc dosed 45 mins before complete Freund's adjuvant dosing measured 4 to 24 hrs post complete Freund's adjuvant challenge by electronic pressure-meter test; assay type: functional, organism-based; parameters: dose 2 mg/kg
[14] = test system: Mus musculus; assay: Antinociceptive activity in Swiss mouse inflammatory pain model assessed as reduction in hyperalgesia at 160 ug/paw dosed 45 mins before PGE2 dosing measured 3 hrs post PGE2 challenge; assay type: functional, organism-based
[15] = test system: Mus musculus; assay: Antinociceptive activity in Swiss mouse inflammatory pain model assessed as reduction in mechanical hyperalgesia at 30 to 120 mg/kg, po dosed 45 mins before complete Freund's adjuvant dosing measured 24 hrs post complete Freund's adjuvant challenge by electronic pressure-meter test; assay type: functional, organism-based
[16] = test system: Mus musculus; assay: Antinociceptive activity in Swiss mouse inflammatory pain model assessed as reduction in hyperalgesia at 120 mg/kg, po dosed once daily for 7 days dosed 45 mins before PGE2 dosing measured 3 hrs post PGE2 challenge; assay type: functional, organism-based; parameters: dose 120 mg/kg
[17] = test system: Mus musculus; assay: Gastric toxicity in Swiss mouse assessed as inflammatory cell index at 60 mg/kg administered daily with single dose (reference value: 0.2 +/- 0.2 inflammatory cell index); assay type: organism-based; parameters: dose 60 mg/kg; details: in vivo
[18] = test system: Mus musculus; assay: Inhibition of carrageenan-induced neutrophil migration to paw tissue in Swiss mouse at 60 mg/kg, po dosed 45 mins before carrageenan dosing measured 3 to 4 hrs post […] challenge by myeloperoxidase kinetic colorimetric assay; assay type: functional, organism-based; parameters: dose 60 mg/kg
[19] = test system: Mus musculus; assay: Antinociceptive activity in Swiss mouse inflammatory pain model assessed as reduction in mechanical hyperalgesia at 30 to 120 mg/kg, po dosed 45 mins before complete Freund's adjuvant dosing measured 2 hrs post complete Freund's adjuvant challenge by electronic pressure-meter test; assay type: functional, organism-based
[20] = test system: Mus musculus; assay: Antinociceptive activity in Swiss mouse inflammatory pain model assessed as reduction in paw withdrawal response at 60 mg/kg, po dosed once daily for 7 days dosed 45 mins before complete Freund's adjuvant dosing measured post complete Freund's adjuvant challenge; assay type: functional, organism-based; parameters: dose 60 mg/kg
[21] = test system: Mus musculus; assay: Inhibition of carrageenan-induced PGE2 production in Swiss mouse at 60 mg/kg, po dosed 45 mins before carrageenan dosing measured 3 hrs post carrageenan challenge by ELISA; assay type: functional, organism-based; parameters: dose 60 mg/kg
[22] = test system: Mus musculus; assay: Gastric toxicity in Swiss mouse assessed as edema index at 60 mg/kg administered daily with single dose (reference value: 0.6 +/- 0.2 edema index); assay type: organism-based; parameters: dose 60 mg/kg; details: in vivo
[23] = test system: Mus musculus; assay: Inhibition of complete Freund's adjuvant-induced IL-1beta production in Swiss mouse at 60 mg/kg, po dosed 45 mins before complete Freund's adjuvant dosing measured up to 24 hrs post complete Freund's adjuvant challenge by ELISA; assay type: functional, organism-based; parameters: dose 60 mg/kg
[24] = test system: Mus musculus; assay: Antinociceptive activity in Swiss mouse inflammatory pain model assessed as reduction in hyperalgesia at 60 mg/kg, po dosed once daily for 7 days dosed 45 mins before PGE2 dosing measured 3 hrs post PGE2 challenge; assay type: functional, organism-based; parameters: dose 60 mg/kg
[25] = test system: Mus musculus; assay: Toxicity in Swiss mouse assessed as AST level at 60 mg/kg, po dosed once daily for 7 days (reference value: 145.7 +/- 23.4 UI/L); assay type: organism-based; parameters: dose 60 mg/kg, route oral; details: in vivo, 168 h
[26] = test system: Mus musculus; assay: Toxicity in Swiss mouse assessed as heart weight changes per 10 gram of body weight at 60 mg/kg, po dosed once daily for 7 days (reference value: 0.05 +/- 0.00 g/10 g body weight); assay type: organism-based; parameters: dose 60 mg/kg, route oral; details: in vivo, 168 h
[27] = test system: Mus musculus; assay: Inhibition of complete Freund's adjuvant-induced neutrophil migration to paw tissue in Swiss mouse at 60 mg/kg, po dosed 45 mins before complete Freund's adjuvant dosing measured 3 to 4 hrs post complete Freund's adjuvant challenge by myeloperoxidase kinetic colorimetric assay; assay type: functional, organism-based; parameters: dose 60 mg/kg
[28] = test system: Mus musculus; assay: Toxicity in Swiss mouse assessed as liver weight changes per 10 gram of body weight at 60 mg/kg, po dosed once daily for 7 days (reference value: 0.73 +/- 0.07 g/10 g body weight); assay type: organism-based; parameters: dose 60 mg/kg, route oral; details: in vivo, 168 h
[29] = test system: Mus musculus; assay: Antinociceptive activity in Swiss mouse inflammatory pain model assessed as reduction in paw withdrawal response at 60 mg/kg, po dosed once daily for 7 days dosed 45 mins before complete Freund's adjuvant dosing measured 2 days post compound withdrawal; assay type: functional, organism-based; parameters: dose 60 mg/kg
[30] = test system: Mus musculus; assay: Toxicity in Swiss mouse assessed as total leukocytes level at 60 mg/kg, po dosed once daily for 7 days (reference value: 5.9 +/- 0.8 10^3/mL); assay type: organism-based; parameters: dose 60 mg/kg, route oral; details: in vivo, 168 h
[31] = test system: Mus musculus; assay: Toxicity in Swiss mouse assessed as creatinine level at 60 mg/kg, po dosed once daily for 7 days (reference value: 0.26 +/- 0.05 mg/dL); assay type: organism-based; parameters: dose 60 mg/kg, route oral; details: in vivo, 168 h
[32] = test system: Mus musculus; assay: Toxicity in Swiss mouse assessed as kidney weight changes per 10 gram of body weight at 60 mg/kg, po dosed once daily for 7 days (reference value: 0.06 +/- 0.00 g/10 g body weight); assay type: organism-based; parameters: dose 60 mg/kg, route oral; details: in vivo, 168 h
[33] = test system: Mus musculus; assay: Antinociceptive activity in Swiss mouse inflammatory pain model assessed as reduction in hyperalgesia at 60 mg/kg, po dosed once daily for 7 days dosed 45 mins before carrageenan dosing measured 3 hrs post carrageenan challenge; assay type: functional, organism-based; parameters: dose 60 mg/kg
[34] = test system: Mus musculus; assay: Toxicity in Swiss mouse assessed as ALT level at 60 mg/kg, po dosed once daily for 7 days (reference value: 68.0 +/- 12.8 UI/L); assay type: organism-based; parameters: dose 60 mg/kg, route oral; details: in vivo, 168 h
[35] = test system: Mus musculus; assay: Toxicity in Swiss mouse assessed as corporal mass changes at 60 mg/kg, po dosed once daily for 7 days (reference value: 0.58 +/- 0.03 g); assay type: organism-based; parameters: dose 60 mg/kg, route oral; details: in vivo, 168 h
[36] = test system: Mus musculus; assay: Gastric toxicity in Swiss mouse assessed as erosion index at 60 mg/kg administered daily with single dose (reference value: 0 +/- 0 erosion index); assay type: organism-based; parameters: dose 60 mg/kg; details: in vivo
[37] = test system: Mus musculus; assay: Inhibition of complete Freund's adjuvant-induced TNFalpha production in Swiss mouse at 60 mg/kg, po dosed 45 mins before complete Freund's adjuvant dosing measured up to 2 hrs post complete Freund's adjuvant challenge by ELISA; assay type: functional, organism-based; parameters: dose 60 mg/kg
[38] = test system: Mus musculus; assay: Effect on baseline nociceptive threshold in Swiss mouse inflammatory pain model at 30 to 120 mg/kg, po dosed 45 mins before complete Freund's adjuvant dosing measured 4 to 24 hrs post complete Freund's adjuvant challenge by electronic pressure-meter test; assay type: functional, organism-based
[39] = test system: Mus musculus; assay: Antinociceptive activity in Swiss mouse inflammatory pain model assessed as reduction in mechanical hyperalgesia at 30 to 120 mg/kg, po dosed 45 mins before complete Freund's adjuvant dosing measured 6 hrs post complete Freund's adjuvant challenge by electronic pressure-meter test; assay type: functional, organism-based
[40] = test system: Mus musculus; assay: Gastric toxicity in Swiss mouse assessed as necrosis index at 60 mg/kg administered daily with single dose (reference value: 0 +/- 0 necrosis index); assay type: organism-based; parameters: dose 60 mg/kg; details: in vivo
[41] = test system: Mus musculus; assay: Antinociceptive activity in Swiss mouse inflammatory pain model assessed as reduction in paw edema at 60 mg/kg, po dosed once daily for 7 days dosed 45 mins before complete Freund's adjuvant dosing measured post complete Freund's adjuvant challenge; assay type: functional, organism-based; parameters: dose 60 mg/kg

COc1ccc2c(c1)c(CC(=O)O)c(C)n2C(=O)c1ccc(Cl)cc1 [INDOMETHACIN]
Activity [1]: 2.6
Activity [2]: 3
Activity [3]: 0
Activity [4]: 4

CS(=O)(=O)Nc1ccc([N+](=O)[O-])cc1Oc1ccccc1
inhibition [5]: Active

C[C@@H]1C[C@H]2[C@@H]3CCC4=CC(=O)C=C[C@]4(C)[C@@]3(F)[C@@H](O)C[C@]2(C)[C@@]1(O)C(=O)CO
inhibition [6]: Active
inhibition [7]: Active
Activity [8]: Active
inhibition [9]: Active
Activity [10]: Active
inhibition [11]: Active
Activity [12]: Active
Activity [13]: Active

Cc1c(N(C)CS(=O)(=O)O)c(=O)n(-c2ccccc2)n1C
Activity [14]: Active

O=c1ccc2ccc(O)cc2o1 [UMBELLIFERONE]
Activity [15]: Dose-dependent effect
Activity [16]: inactive
Activity [17]: 0.4
inhibition [18]: Active
Activity [19]: Dose-dependent effect
Activity [20]: Active
inhibition [21]: Active
Activity [22]: 0.7
inhibition [23]: Active
Activity [24]: inactive
Activity [25]: 115 IU/L
Activity [26]: 0.05 g
inhibition [27]: Active
Activity [28]: 0.72 g
Activity [29]: inactive
Activity [30]: 6.725 ×10³ /ml
Activity [31]: 0.27 mg/dL
Activity [32]: 0.07 g
Activity [33]: Active
Activity [34]: 51 IU/L
Activity [35]: 0.6 g
Activity [36]: 0
inhibition [37]: Active
Activity [38]: inactive
Activity [39]: Dose-dependent effect
Activity [40]: 0
Activity [41]: Active

Reference: ChEMBL document CHEMBL2146469, “Mechanisms involved in the antinociceptive effects of 7-hydroxycoumarin” (J Nat Prod, 2011)
